One molecule from patent US20090163481A1, “PPAR-DELTA LIGANDS AND METHODS OF THEIR USE” (priority 2007, published 2009) can be followed below.

SMILES strings stand for the structures.

One assay deals with T1, PPARδ (Homo sapiens, UniProt Q03181).
T1 construct: expressed in transfected cells; host or cells: U2-OS (human bone cancer line)
T1 sequence (Q03181 1-441): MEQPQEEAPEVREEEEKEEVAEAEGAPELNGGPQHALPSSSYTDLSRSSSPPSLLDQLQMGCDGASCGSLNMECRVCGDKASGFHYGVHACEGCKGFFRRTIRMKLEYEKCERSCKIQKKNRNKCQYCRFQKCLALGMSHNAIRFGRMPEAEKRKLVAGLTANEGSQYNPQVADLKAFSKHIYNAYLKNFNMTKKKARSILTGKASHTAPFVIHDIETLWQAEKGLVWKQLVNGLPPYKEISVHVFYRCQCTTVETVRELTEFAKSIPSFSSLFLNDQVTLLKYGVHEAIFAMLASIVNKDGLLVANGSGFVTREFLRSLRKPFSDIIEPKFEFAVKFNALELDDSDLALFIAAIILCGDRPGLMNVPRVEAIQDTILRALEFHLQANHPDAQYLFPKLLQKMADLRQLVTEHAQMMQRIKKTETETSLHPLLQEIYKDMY
The experiment in a line: PPRE promoter/luciferase reporter (transactivation) assay in U2-OS cells. The assay is classed as cell-based. Here is the method:
General Testing Procedures. Each ligand was screened for PPARδ binding and transactivation activity through the use of two complementary reporter assays as described below. In both systems, transfection efficiency was standardized by co-transfection of a control Renilla luciferase. U2-OS (human bone cancer line) cells were used for both assays because this is the cell line of choice for screening PPAR ligands. At 18 h post-transfection, GW 501, with and without the ligands of the disclosure, was added to the cells and incubated for an additional 24 h. The cells were then harvested and luciferase activities profiled.
A promoter/luciferase reporter assay. This assay involves co-transfection of a PPARδ expression vector and a plasmid containing a luciferase gene under the control of PPARδ responsive DNA element (three copies of a consensus PPAR response element, PPRE). This assay was used to directly test ligand effects on PPARδ-responsive genes.
Referring to FIG. 3, U2-OS cells were transiently transfected with appropriate expression and reporter vectors. Ligands were added to the cell cultures 24 h post-transfection and incubated for an additional 16 h. Lipoprotein lipase (LPL; 2 μg/ml) was added with VLDL (5 μg/ml) to release PPARδ-active triglycerides. FIG. 3A: PPARδ LBD/Gal4/UAS-tk-luc competition assays with VLDL SR13904 (0-10 μM). The reporter activation (fold increase over blank) is presented relative to GW501516 at 7 nM (fold increase over blank=100). FIG. 3B: PPRE reporter assays using 0, 1, and 10 μM SR13904+VLDL. All assays were repeated in triplicate.
A general note: A reporter such as luciferase makes a cellular process visible.

A further assay relates to A549. Put plainly: Alamar Blue proliferation assay, A549. The assay is classed as cell-based. To be noted: Homo sapiens, 96 h; A549, 0-40 μM, 0.5% serum, 4 days; read-out: IC50 for growth inhibition. Here is the method: The effect of SR13904 on the proliferation of these cell lines was determined by an Alamar Blue assay. Exponentially growing cells were treated with a range of SR13904 concentrations (0-40 μM; in 0.5% serum) over 4 days and proliferation curves were determined. The IC50 values for growth inhibition by SR13904 for each cell line were determined. […] In addition, colony formation assays with SR13904 were performed with both A549 and Huh7 cells.
For orientation: The colour change of resazurin is a common sign of viable cells or microbes.

A short description of assay [1]: Proliferation assay of Table 2 (cell line not stated). It is filed as cell-based. The following applies: concentration that inhibits cell viability (or growth) by 50% relative to vehicle control; read-out: Prolif IC50. Here is the method:
The LANTHA SCREEN™ TR-FRET PPARδ Competitive Binding Assay was conducted for a variety of compounds according to the instructions provided by the manufacturer (Invitrogen). In addition, proliferation assays were conducted. In Table 2, “Prolif IC50” is the concentration that inhibits cell viability (or growth) by 50% relative to a vehicle control, and “TR-F binding IC50 (μM)” is the concentration that competes binding by a labeled pan-agonist to the ligand binding domain of PPAR delta, by 50%.

Another assay relates to PC-3 cells. Put plainly: Western analysis of cyclin D1 and CDK2 in post-confluent PC-3 cells. The assay is classed as cell-based, human. To be noted: post-confluent PC-3, 48 h, SR 13904 10 μM, vehicle- and VLDL-treated cells. Here is the method:
Referring to FIG. 4, PC-3 cells were brought to confluence and cultured in serum-free OptiMem culture medium (Gibco) 2 h before treatment with a combination of VLDL (2 μg/ml+2 μg/ml LPL) and/or SR 13904 (10 μM) and incubated for an additional 48 h. Standard Western blotting was performed. Glyceraldehyde 3 phosphate dehydrogenase (GAPDH) was used a control for both blots.

For the next assay, the system named is A549 cells. The experiment in a line: Apoptosis, Cell Death Detection ELISA (DNA fragmentation) in A549 cells. It is filed as cell-based, human. The following applies: A549, 0.5% serum, SR13904 15 μM, 40 h. Here is the method: Referring now to FIG. 6, SR13904 treatment of cancer cells results in increased apoptosis. A549 cells (2×10^4 cells/well) were incubated in 0.5% media (96 well plates) SR13904 for 40 h. The relative degrees of apoptosis were determined using a Cell Death Detection ELISA (Roche). SR represents SR13904. ***p=<0.001 SR vs. SR+GW501.
SR13904 treatment results in increased apoptosis. Down-regulation of PPARδ, either by genetic knockout or by the treatment with 13-S—HODE (15-lipoxygenase-1 product), induces apoptosis in colorectal cancer cells. The effects of SR13904 (15 μM) GW501 (1 μM) on survival of A549 cells (0.5% serum) was determined. Relative degrees of apoptosis were measured using a DNA fragmentation assay.
Background: In an ELISA, binding on a coated surface is turned into a signal by an enzyme label.

The test system of another assay is MMP-9. The experiment in a line: Gelatin zymogel analysis of MMP-9 activity in PC-3 cells. The assay is classed as cell-based, human. The following applies: PC-3, 16 h; VLDL 2 μg/ml + LPL 2 μg/ml and/or 10 μM SR13904. Here is the method: Zymogel studies were performed to determine whether PPARδ could regulate MMP-9 expression/activity in prostate cancer cells. Over-expression of MMP-9 is directly linked to metastatic prostate cancer, at least in part through mitogen/extracellular-signal-regulated kinase kinase 5/extracellular signal-regulated kinase-5 (MEK5/ERK5). An increase in MMP-9 activity in VLDL-treated PC-3 cells was observed (see FIG. 7), and this activation was attenuated by co-incubation with SR 13904.
Referring to FIG. 7, PC-3 cultures were treated with ligands (2 μg/ml VLDL+2 μg/ml LPL and/or 10 μM SR13904) for 16 h prior to harvesting of cells (for cell counting) and collection and concentration of conditioned media. Loading was based on equal cell numbers, corresponding closely to equal loading volumes.

Broadly, the IC50 is the midpoint of a concentration-inhibition curve. `Cc1cc(SCc2sc(-c3cccc4ccccc34)nc2C)ccc1OCC(=O)O` [SR 13904]: the “inhibition of PPARδ-mediated transactivation” value on PPARδ is given as “appear to inhibit”. Moreover, the figures for the “reporter expression via PPRE in combination with GW 501” value at PPARδ (1 μM ligand) and on PPARδ (10 μM ligand) were “significantly decreased” and “completely inhibited”, respectively. In addition, at PPARδ (1 and 10 μM ligand with GW501), the “transcription activation of the PPRE reporter to GW501” value is given as “completely eliminated”. Further, at PPARδ (co-treatment with 1 μM), the “VLDL-related activation of the PPAR promoter element (PPRE) construct” value is recorded as “completely block”. For the same molecule, the concentration for half-maximal inhibition (IC50) with A549 was 8 to 10 µM; in assay [1] it was 12 µM. In addition, in the assay on PC-3 cells (VLDL 2 μg/ml + LPL 2 μg/ml), the CDK2 protein levels result is “decreased”. Moreover, the “cyclin D1 protein levels” value in the assay on PC-3 cells was “decreased”. Also, the “apoptosis (DNA fragmentation)” value with A549 cells is recorded as “significant apoptotic effect”. Also, the MMP-9 activity result in the assay on MMP-9 is given as “attenuated”.
